The record followed here is PubChem BioAssay AID1996.

As a reminder, the solubility (kinetic) is the concentration staying in solution when a stock, usually in DMSO, is diluted into the medium.

Values after ≈ are worked out from the molar mass of the structure shown.

For the data set the following is noted: buffer; pH 7.4; 200.0 µM.
The molecule `COc1ccc(OC)c(NC(=O)c2cc3c(cc2Cl)N2CCCCCC2=NS3(=O)=O)c1` showed a solubility (kinetic) of 3.7 µg/mL (≈ 7.98 µM).
For the molecule `CC(Sc1ccccc1)C(=O)N(CCC#N)Cc1cccnc1` (centres undefined), the solubility (kinetic) is over 48.8 µg/mL.
For the molecule `CC(=O)Nc1nnc(SCC(=O)NC2CC2)s1`, the solubility (kinetic) was over 40.9 µg/mL.
The molecule `O=C(OCC(=O)N1CCc2ccccc21)c1ccc[nH]c1=O` displayed a kinetic solubility of 8.6 µg/mL (≈ 28.8 µM).
Molecule `CC1(C)CC(NCc2ccccc2)CCO1.Cl` (centres undefined) had a solubility (kinetic) of 34.2 µg/mL.
As for `Cc1nc(Cl)sc1C(=O)Nc1ccc(C(C)(C)C)cc1`, the solubility (kinetic) came to 11.3 µg/mL (≈ 36.6 µM). This solubility kinetic is about 3-fold lower than that of the molecule before.
The value for `Cc1cccc(N2C(=O)CC(n3ccnc3)C2=O)c1C` (centres undefined) was 32.9 µg/mL (≈ 122 µM); that for `NC(Cc1ccccc1)c1nc(-c2ccccc2)no1` (centres undefined) was over 39.8 µg/mL.
`Cn1c(C(=O)c2ccccc2)nc2ccccc21` yielded a solubility (kinetic) of 24 µg/mL (≈ 102 µM).
Regarding `COc1ccc(C(=O)Nc2nc3ccccc3s2)cc1`, the solubility (kinetic) is under 0.3 µg/mL.
In turn, `COC(=O)c1cc(S(=O)(=O)N2CCCC(C)C2)cn1C` (centres undefined) showed a solubility (kinetic) of 43.2 µg/mL (≈ 144 µM).
For `Cc1ccc(-n2c(CNCc3ccc(F)cc3)nc3ccccc3c2=O)cc1`, the kinetic solubility was 35.1 µg/mL (≈ 94 µM). This solubility kinetic and that of the molecule before are within 1.5-fold of each other.
The figure for `Cc1ccc(NC(=S)NCCCN2CCOCC2)cc1C` is over 46.1 µg/mL.
In turn, `Cc1cc(C)cc(N2C(=O)CCN(Cc3ccccc3)C2=O)c1` came in with a solubility (kinetic) of 38 µg/mL (≈ 123 µM).
The value for `NC(=O)C1CCN(C(=O)CCc2ccsc2)CC1` was over 40 µg/mL; that for `O=C(NC1CCCCC1)N1CCN(c2ccc([N+](=O)[O-])cc2)CC1` was 12.7 µg/mL (≈ 38.2 µM).
The figure for `Cc1cc(C)cc(-c2nnc(SCC(=O)NC3CC3)o2)c1` is over 45.5 µg/mL.
The value for `Cc1ccc(Cl)cc1NC(=O)c1ccccn1` was 6.3 µg/mL (≈ 25.5 µM).
Turning to `COc1cc(C(=O)OCC(=O)N2CCCC2)cc2c1OCCO2`, the solubility (kinetic) is over 48.2 µg/mL.
The molecule `O=C1CCC/C1=C\Nc1ccc(Cl)c([N+](=O)[O-])c1` showed a solubility (kinetic) of 7.2 µg/mL (≈ 27 µM).
Consider `O=C(COC(=O)Cc1cccs1)Nc1cc(S(=O)(=O)N2CCOCC2)ccc1Cl`, for which the solubility (kinetic) came out at 56.5 µg/mL (≈ 123 µM).
Regarding `Cc1ccccc1NC(=O)NC1CCCCCCC1`, the kinetic solubility turned out to be 1.5 µg/mL (≈ 5.76 µM). Compared with the last molecule, the solubility kinetic is about 38-fold lower.
In the case of `O=C(Oc1ccc(F)cc1)N1CCOCC1`, the kinetic solubility is over 33.8 µg/mL.
Turning to `COc1ccc(C(=O)CCC(C)(C)[N+](=O)[O-])cc1`, the solubility (kinetic) was 31.8 µg/mL (≈ 127 µM).
As to `O=C(O)CNS(=O)(=O)c1c(Cl)cccc1Cl`, the solubility (kinetic) was over 42.6 µg/mL.
Take `CC(C)c1nc(C#N)c(NN)o1`: the kinetic solubility was over 24.9 µg/mL.
The value for `O=C1/C(=C\c2cccnc2)N2CCC1CC2` was over 32.1 µg/mL; that for `CCN(CC)c1ccc(NC(=O)C2CCCC2)cc1` was 35.4 µg/mL (≈ 136 µM); that for `CCOC(=O)C1CCN(c2ccc([N+](=O)[O-])c(C(C)=O)c2)CC1` was over 48.1 µg/mL.
The molecule `Cc1cc(Br)ccc1OCC(=O)NC1CCCC1` yielded a solubility (kinetic) of 31.4 µg/mL (≈ 101 µM).
`Cc1cc(NC(=O)C(=O)c2cn(C)c3ccccc23)no1`: the solubility (kinetic) amounted to 0.6 µg/mL (≈ 2.12 µM).
In turn, `CCNC(=O)c1cnn(-c2ccccc2)c1-c1ccccc1` had a solubility (kinetic) of over 43.7 µg/mL.
The figure for `CC(C)CCOc1ccc(C2CC(=O)N(C)C2=O)cc1` (centres undefined) is 40.3 µg/mL (≈ 146 µM).
In turn, `O=C(NCc1ccccc1F)c1cc(=O)[nH]c2ccccc12` registered a kinetic solubility of 4.9 µg/mL (≈ 16.5 µM).
The figure for `CCC(=O)Nc1ccc2c(c1)ncn2CCc1ccccc1` is over 44 µg/mL.
The value for `O=C(NC1CCCCCC1)C(=S)NCc1ccccc1` was 1.6 µg/mL (≈ 5.51 µM); that for `Nc1ccccc1C#Cc1ccc([N+](=O)[O-])cc1` was 1.1 µg/mL (≈ 4.62 µM); that for `CN(C)C(CNC(=O)CCOc1ccccc1)c1ccco1` (centres undefined) was 43 µg/mL (≈ 142 µM).
Turning to `CSc1ccccc1NC(=O)Nc1ccccc1Cl`, the kinetic solubility stood at 1.7 µg/mL (≈ 5.81 µM).
`NS(=O)(=O)c1ccc(N2CCOCC2)c(C(=O)NCc2cccs2)c1` yielded a kinetic solubility of over 57.2 µg/mL.
`CCC(CC)NC(=O)COc1ccc(OC)cc1C=O` came in with a solubility (kinetic) of 30.7 µg/mL (≈ 110 µM).
With `CSC1=NC2(C[C@H]2c2ccccc2)C(=O)N1C` (some centres undefined), the solubility (kinetic) was over 36.9 µg/mL.
The molecule `O=C(Nc1ccccc1)C1C2CCCCC21` (centres undefined) gave a kinetic solubility of 1.9 µg/mL (≈ 8.83 µM).
The figure for `Cc1ccc2c(COC(=O)C3CSC4(C)CCC(=O)N34)cc(=O)oc2c1C` (centres undefined) is 38.4 µg/mL (≈ 99.1 µM); for `O=C(N/N=C/C1CC2CCC1C2)C1CC1` (centres undefined) it is over 30.9 µg/mL; for `COc1ccc(C(=O)N[C@H](C(=O)NC2CCCCC2)C(C)C)cc1` it is 5.1 µg/mL (≈ 15.3 µM).
With `CCOc1ccccc1N1CN(C2CCCCC2)CNC1=S`, the solubility (kinetic) was over 47.9 µg/mL.
The molecule `NS(=O)(=O)c1ccc(CCNC(=O)Cc2cccs2)cc1` came in with a solubility (kinetic) of 31.8 µg/mL (≈ 98 µM).
In the case of `Cc1ccc(C(=O)C[n+]2cccc(C(N)=O)c2)cc1.[Br-]`, the solubility (kinetic) was over 50.3 µg/mL.
Consider `CCC1CCCCN1S(=O)(=O)c1ccccc1` (centres undefined), for which the kinetic solubility came to 31.5 µg/mL (≈ 124 µM).
Take `COCC(=O)OC/C(O)=C(\C#N)c1nc2ccccc2[nH]1`: the solubility (kinetic) was over 43.1 µg/mL.
In turn, `O=C1NC(c2ccc(O)cc2)Nc2ccccc21` (centres undefined) gave a solubility (kinetic) of 29.2 µg/mL (≈ 122 µM).
The figure for `N/C(=N\O)c1ccc(Oc2ccccc2Cl)c([N+](=O)[O-])c1` is 44.1 µg/mL (≈ 143 µM); for `COCC(C)n1c(SCC(=O)NC(=O)NCc2ccccc2)nc2ccccc2c1=O` (centres undefined) it is 2.7 µg/mL (≈ 6.13 µM).
